Measurements: patent publication US11612586B2, “Indole regulation of antigen presenting cells” (THE TEXAS A&M UNIVERSITY SYSTEM, priority 2016, dated 2023)
Entries after “also recorded” stand apart in the source; their conditions may differ.

Assays:
[1] = tested on: reactive oxygen species (ROS); test: Reactive oxygen species production in DC2.4 and BMDC
[2] = tested on: Erk; test: pERK signaling in BMDCs; format: cell-based, mouse; conditions: 1 mM TDMM 24 hours, CpG (5 uM) 15 minutes
Description: The inventors performed a series of assays where bone marrow derived macrophages (BMDMs), bone marrow derived dendritic cells (BMDCs), and splenic dendritic cells (splenic DCs), were exposed to a series of TDMMs, including indole, indole-3-acetate (I3AT), 5-hydroxyindole (5HI), and indole-3-pyruvate (I3P), as well as indole-3-carbinol (I3C; a plant derived compound) to be used for a positive control (1 mM for 24 hours). The BMDMs and BMDCs were stimulated with LPS for 4 hours and assayed at day 7 for expression of various pro-inflammatory cytokines. In a similar assay, the BMDMs and BMDCs were stimulated with LPS or CpG, respectively, for 15 minutes and assayed for pAKT and pERK signaling, which is a reflection of pro-inflammatory response.

[3] = tested on: TNF; test: TNF production in BMDCs, intracellular staining, flow cytometry; format: cell-based, mouse
[4] = tested on: nitric oxide (NO); test: Nitric oxide production in DC2.4 and BMDC (Griess reaction)
[5] = tested on: DSS colitis; test: BMDC transfer in murine DSS colitis model; format: in vivo, mouse; conditions: mice transferred i.p. with BMDCs conditioned with indole, 5% DSS day 7-14, endpoint day 20
Description: FIGS. 21A and 21B graphically illustrate that the in vivo transfer of indole-conditioned DCs prevented shortening of colon in a murine DSS colitis model. BMDCs were cultured with indole, RA, or DMF from day 3. Two million BMDCs were transferred via i.p. injection to WT C57BL/6 mice on days 0, 6, and 9 of the experiment. Mice received 5% dextran sulfate sodium (DSS) ad libitum in their drinking water from day 7 through day 14. Mice were euthanized on day 20 and colons were immediately removed and measured for length (FIG. 21A) and weight (FIG. 21B). n=4 mice/group. *p<0.05 by one-way ANOVA followed by Dunnett's post-test, comparing to unmanipulated control colons.
A hallmark pathological sign of colitis is shortening of the colon, mediated by abscesses forming in the intestinal crypts that disrupt the mucosal architecture and are later replaced by scar tissue. […] Shortening of the colon is an established indicator of colitis pathology in the murine model of DSS colitis.
BMDCs were cultured with indole, RA, or DMF from day 3 as described above. BMDCs were washed, counted, and resuspended in sterile PBS (Ca—Mg—) for transfer to WT C57BL/6 recipients. Two million BMDCs were transferred via i.p. injection on days 0, 6, and 9 of the experiment. Mice received 5% dextran sulfate sodium (DSS, MW=36,000-50,000; MP Biomedicals) ad libitum in their drinking water from day 7 through day 14. […]

[6] = tested on: CCR9; test: CCR9 induction on naïve T cells by conditioned DCs; format: cell-based, mouse
Description: FIG. 18 graphically illustrates that indole-conditioned DCs induce CCR9 on naïve T cells upon activation. Naïve CD4+CD25− T cells from OT-II mice were co-cultured with OVA323-339 peptide-loaded BMDCs for 72 hours in the presence of RA as indicated. BMDCs were previously treated with indole, RA, or DMF from day 3. Following 3 days of co-culture, surface staining was performed for flow cytometric analysis.
Based on the observation that indole induces gut homing markers on developing DCs, it was queried whether indole-conditioned DCs could also confer gut homing markers upon naïve CD4+ T cells. The antigen-specific T cell activation model was used to address this question, and a titration of RA was included as a positive control to induce CCR9. […] Just 10 nM of RA enabled indole-DC co-cultures to achieve over 50% of T cells expressing CCR9 which was similar to RA-DC positive controls, whereas DMF-DC co-cultures with the same concentration of RA added achieved only 10% of CCR9+ T cells.
Naïve CD4+CD25− T cells of spleen and lymph nodes from OT-II mice were isolated by negative selection via column purification using the Naïve CD4+ T Cell Isolation Kit (Miltenyi Biotec). Naïve CD4+ T cells (>96% pure) were labeled with Cell Proliferation Dye efluor450 (eBioscience) following manufacturer's instructions then co-cultured with OVA peptide-loaded BMDCs at a ratio of 2:1 for 72 hours in a 96-well round-bottom tissue culture plate. BMDCs were previously treated with indole or RA from day 3. On day 7, DCs were washed extensively prior to being loaded with OVA323-339 peptide (10 ug/ml) for 1 hour at 37° C. BMDCs were then washed three times and plated with naïve CD4+ T cells. RA or TGFβ were added to co-cultures as indicated. Following 3 days of culture, cells were stained with antibodies to CD4, CCR9, and LPAM-1 (α4β7). Intracellular staining for Foxp3 was performed using a Foxp3 staining kit (eBioscience). The remaining CD4+ helper T cell lineages Th1, Th2, and Th17 were identified by their cytokine production. […]

[7] = tested on: Salmonella Typhimurium; test: Colonization of mice by Salmonella exposed to indole; format: in vivo; conditions: Salmonella exposed to indole compared to solvent-treated controls

SMILES: c1ccc2[nH]ccc2c1 [Indole, indole]
- secretion of reactive oxygen species (ROS) [1]: intact
- pERK [2]: ↓↓
- reduction in TNF ([3]; BMDCs exposed to indole from day 3 of 7 day culture, LPS stimulation): 30%
- inhibition of TNF production ([3]; BMDCs, indole for 18 hours followed by TLR stimulation): ~2 fold
- secretion of nitric oxide (NO) [4]: intact
- average colon length [5]: ~6 cm
- T cells expressing CCR9 ([6]; co-culture with DCs conditioned with indole, 10 nM of RA added): over 50%
- induction of CCR9 on naïve T cells by conditioned BMDCs alone ([6]; no exogenous RA in the co-culture): insufficient; also recorded: did not induce CCR9
- competitiveness of Salmonella in colonizing mice [7]: less competitive
